Tested on: RKO p21 uninduced (proliferating) colon adenocarcinoma cells
Test: Alamar Blue cell viability assay, RKO p21 uninduced (proliferating)
Type: cell-based
Conditions: Homo sapiens, Table B3, anti-proliferative/cytotoxic activity, 72 hours, read-out: −log EC50 RKO p21 uninduced (proliferating) (converted)
In short: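 Viability read by Alamar Blue fluorescence (ex 544, em 590 nm), normalised to untreated wells, after 72 h, 37° C, 5% CO2 compound exposure in triplicate. Cells were uninduced (no Ponasterone A), proliferating RKO colon carcinoma p27 or p21 subclones in DMEM with 10% FCS; values are −log EC50 (mol/l).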

Structure (SMILES) | EC50 [nM]
CC(=O)N1CCN(CCCN2C(=O)N3[C@H](c4cccc(O)c4)c4[nH]c5cc(F)c(Cl)cc5c4C[C@@]3(C)C2=O)CC1 (racemic) [Example 482, (3aSR,10RS)-2-[3-(4-Acetyl-piperazin-1-yl)-propyl]-6-chloro-7-fluoro-10-(3-hydroxy-phenyl)-3a-methyl-3a,4,9,10-tetrahydro-2,9,10a-triaza-cyclopenta[b]fluorene-1,3-dione] | 39.8 to 251
C[C@@]12Cc3c([nH]c4cc(F)c(Cl)cc34)[C@@H](c3cccc(O)c3)N1C(=O)N(CCNCC1CC1)C2=O (racemic) [Example 341, (3aSR,10RS)-6-Chloro-2-[2-(cyclopropylmethyl-amino)-ethyl]-7-fluoro-10-(3-hydroxy-phenyl)-3a-methyl-3a,4,9,10-tetrahydro-2,9,10a-triaza-cyclopenta[b]fluorene-1,3-dione] | ≤ 39.8
COc1ccc2[nH]c3c(c2c1F)C[C@@]1(C)C(=O)N(CCNC(C)C)C(=O)N1[C@@H]3c1cccc(O)c1 (racemic) [Example 408, (3aSR,10RS)-5-Fluoro-10-(3-hydroxy-phenyl)-2-{2-isopropylamino-ethyl)-6-methoxy-3a-methyl-3a,4,9,10-tetrahydro-2,9,10a-triaza-cyclopenta[b]fluorene-1,3-dione] | 39.8 to 251
COCCNCCCN1C(=O)N2[C@H](c3cccc(O)c3)c3[nH]c4ccc(Cl)cc4c3C[C@@]2(C)C1=O (racemic) [Example 185, (3aSR,10RS)-6-Chloro-10-(3-hydroxy-phenyl)-2-[3-(2-methoxy-ethylamino)-propyl]-3a-methyl-3a,4,9,10-tetrahydro-2,9,10a-triaza-cyclopenta[b]fluorene-1,3-dione] | ≤ 39.8
CCNCCCN1C(=O)N2[C@H](c3cccc(O)c3)c3[nH]c4ccc(Br)cc4c3C[C@@]2(C)C1=O (racemic) [Example 212, (3aSR,10RS)-6-Bromo-2-(3-ethylamino-propyl)-10-(3-hydroxy-phenyl)-3a-methyl-3a,4,9,10-tetrahydro-2,9,10a-triaza-cyclopenta[b]fluorene-1,3-dione] | ≤ 39.8
CNCCN1C(=O)N2[C@H](c3cccc(O)c3)c3[nH]c4ccc(OC)c(F)c4c3C[C@@]2(C)C1=O (racemic) [Example 406, (3aSR,10RS)-5-Fluoro-10-(3-hydroxy-phenyl)-6-methoxy-3a-methyl-2-(2-methylamino-ethyl)-3a,4,9,10-tetrahydro-2,9,10a-triaza-cyclopenta[b]fluorene-1,3-dione] | 39.8 to 251
C[C@@]12Cc3c([nH]c4ccc(OC(F)F)cc34)[C@@H](c3cccc(O)c3)N1C(=O)N(CCN)C2=O (racemic) [Example 283, (3aSR,10RS)-2-(2-Amino-ethyl)-6-(1,1-difluoro-methoxy)-10-(3-hydroxy-phenyl)-3a-methyl-3a4,9,10-tetrahydro-2,9,10a-triaza-cyclopenta[b]fluorene-1,3-dione] | 39.8 to 251
C[C@@]12Cc3c([nH]c4ccc(Cl)cc34)[C@@H](c3cccc(O)c3)N1C(=O)N(CCCN1CC=CC1)C2=O (racemic) [Example 173, (3aSR,10RS)-6-Chloro-2-[3-(2,5-dihydro-pyrrol-1-yl)-propyl]-10-(3-hydroxy-phenyl)-3a-methyl-3a,4,9,10-tetrahydro-2,9,10a-triaza-cyclopenta[b]fluorene-1,3-dione] | ≤ 39.8
C[C@@]12Cc3c([nH]c4ccc(Br)cc34)[C@@H](c3cccc(O)c3)N1C(=O)N(CCN1CCCCCC1)C2=O (racemic) [Example 396, (3aSR,10RS)-2-(2-Azepan-1-yl-ethyl)-6-bromo-10-(3-hydroxy-phenyl)-3a-methyl-3a,4,9,10-tetrahydro-2,9,10a-triaza-cyclopenta[b]fluorene-1,3-dione] | 39.8 to 251
CN(CCO)CCN1C(=O)N2[C@H](c3cccc(O)c3)c3[nH]c4cc(F)c(Cl)cc4c3C[C@@]2(C)C1=O (racemic) [Example 348, (3aSR,10RS)-6-Chloro-7-fluoro-2-{2-[(2-hydroxy-ethyl)-methyl-amino]-ethyl}-10-(3-hydroxy-phenyl)-3a-methyl-3a,4,9,10-tetrahydro-2,9,10a-triaza-cyclopenta[b]fluorene-1,3-dione] | 39.8 to 251
CN(C)CCCN1C(=O)N2[C@H](c3cccc(O)c3)c3[nH]c4cc(F)c(Cl)cc4c3C[C@@]2(C)C1=O (racemic) [Example 335, (3aSR,10RS)-6-Chloro-2-(3-dimethylamino-propyl)-7-fluoro-10-(3-hydroxy-phenyl)-3a-methyl-3a,4,9,10-tetrahydro-2,9,10a-triaza-cyclopenta[b]fluorene-1,3-dione] | 39.8 to 251
C=CCN(C)CCCN1C(=O)N2[C@H](c3cccc(O)c3)c3[nH]c4cc(F)c(Cl)cc4c3C[C@@]2(C)C1=O (racemic) [Example 472, (3aSR,10RS)-2-[3-(Allyl-methyl-amino)-propyl]-6-chloro-7-fluoro-10-(3-hydroyx-phenyl)-3a-methyl-3a,4,9,10-tetrahydro-2,9,10a-triaza-cyclopenta[b]fluorene-1,3-dione] | 39.8 to 251
CC(C)NCCCN1C(=O)N2[C@H](c3cccc(O)c3)c3[nH]c4ccc(Cl)cc4c3C[C@@]2(C)C1=O (racemic) [Example 392, (3aSR,10RS)-6-Chloro-10-(3-hydroxy-phenyl)-2-(3-isopropylamino-propyl)-3a-methyl-3a,4,9,10-tetrahydro-2,9,10a-triaza-cyclopenta[b]fluorene-1,3-dione] | ≤ 39.8
CCN(C)CCN1C(=O)N2[C@H](c3cccc(O)c3)c3[nH]c4cc(F)c(OC)cc4c3C[C@@]2(C)C1=O (racemic) [Example 257, (3aSR,10RS)-2-[2-(Ethyl-methyl-amino)-ethyl]-7-fluoro-10-(3-hydroxy-phenyl)-6-methoxy-3a-methyl-3a,4,9,10-tetrahydro-2,9,10a-triaza-cyclopenta[b]fluorene-1,3-dione] | 39.8 to 251
C=CCN(C)CCCN1C(=O)N2[C@H](c3cccc(O)c3)c3[nH]c4ccc(OCC)cc4c3C[C@@]2(C)C1=O (racemic) [Example 196, (3aSR,10RS)-2-[3-(Allyl-methyl-amino)-propyl]-6-ethoxy-10-(3-hydroyx-phenyl)-3a-methyl-3a,4,9,10-tetrahydro-2,9,10a-triaza-cyclopenta[b]fluorene-1,3-dione] | 39.8 to 251
COc1cc2c3c([nH]c2cc1F)[C@@H](c1cccc(O)c1)N1C(=O)N(CCCN2CCN(C)CC2)C(=O)[C@]1(C)C3 (racemic) [Example 325, (3aSR,10RS)-7-Fluoro-10-(3-hydroxy-phenyl)-6-methoxy-3a-methyl-2-[3-(4-methyl-piperazin-1-yl)-propyl]-3a,4,9,10-tetrahydro-2,9,10a-triaza-cyclopenta[b]fluorene-1,3-dione] | 39.8 to 251
C[C@@]12Cc3c([nH]c4cc(F)c(Cl)cc34)[C@@H](c3cccc(O)c3)N1C(=O)N(CCCN1CCCCCC1)C2=O (racemic) [Example 483, (3aSR,10RS)-2-(3-Azepan-1-yl-propyl)-6-chloro-7-fluoro-10-(3-hydroyx-phenyl)-3a-methyl-3a,4,9,10-tetrahydro-2,9,10a-triaza-cyclopenta[b]fluorene-1,3-dione] | 39.8 to 251
COc1cc2c3c([nH]c2cc1F)[C@@H](c1cccc(O)c1)N1C(=O)N(CCNCC(C)C)C(=O)[C@]1(C)C3 (racemic) [Example 252, (3aSR,10RS)-7-Fluoro-10-(3-hydroxy-phenyl)-2-(2-isobutylamino-ethyl)-6-methoxy-3a-methyl-3a,4,9,10-tetrahydro-2,9,10-triaza-cyclopenta[b]fluorene-1,3-dione] | 39.8 to 251
CC1CCN(CCCN2C(=O)N3[C@H](c4cccc(O)c4)c4[nH]c5ccc(OC(F)F)cc5c4C[C@@]3(C)C2=O)CC1 (racemic) [Example 244, (3aSR,10RS)-6-(1,1-Difluoro-methoxy)-10-(3-hydroxy-phenyl)-3a-methyl-2-[3-(4-methyl-piperidin-1-yl)-propyl]-3a,4,9,10-tetrahydro-2,9,10a-triaza-cyclopenta[b]fluorene-1,3-dione] | 39.8 to 251
CC(C)(C)NCCN1C(=O)N2[C@H](c3cccc(O)c3)c3[nH]c4cc(F)c(Cl)cc4c3C[C@@]2(C)C1=O (racemic) [Example 345, (3aSR,10RS)-2-(2-tert-Butylamino-ethyl)-6-chloro-7-fluoro-10-(3-hydroxy-phenyl)-3a-methyl-3a,4,9,10-tetrahydro-2,9,10a-triaza-cyclopenta[b]fluorene-1,3-dione] | ≤ 39.8
COCCNCCCN1C(=O)N2[C@H](c3cccc(O)c3)c3[nH]c4cc(F)c(OC)cc4c3C[C@@]2(C)C1=O (racemic) [Example 306, (3aSR,10RS)-7-Fluoro-10-(3-hydroxy-phenyl)-6-methoxy-2-[3-(2-methoxy-ethylamino)-propyl]-3a-methyl-3a,4,9,10-tetrahydro-2,9,10a-triaza-cyclopenta[b]fluorene-1,3-dione] | 39.8 to 251
CCOc1ccc2[nH]c3c(c2c1)C[C@@]1(C)C(=O)N(CCCN2CCOCC2)C(=O)N1[C@@H]3c1cccc(O)c1 (racemic) [Example 207, (3aSR,10RS)-6-Ethoxy-10-(3-hydroxy-phenyl)-3a-methyl-2-(3-morpholin-4-yl-propyl)-3a,4,9,10-tetrahydro-2,9,10a-triaza-cyclopenta[b]fluorene-1,3-dione] | 39.8 to 251
C[C@@]12Cc3c([nH]c4ccc(OC(F)F)cc34)[C@@H](c3cccc(O)c3)N1C(=O)N(CCCNCC1CC1)C2=O (racemic) [Example 200, (3aSR,10RS)-2-[3-(Cyclopropylmethyl-amino)-propyl]-6-(1,1-difluoro-methoxy)-10-(3-hydroxy-phenyl)-3a-methyl-3a,4,9,10-tetrahydro-2,9,10a-triaza-cyclopenta[b]fluorene-1,3-dione] | 39.8 to 251
CCOc1ccc2[nH]c3c(c2c1)C[C@@]1(C)C(=O)N(CCCNCCOC)C(=O)N1[C@@H]3c1cccc(O)c1 (racemic) [Example 189, (3aSR,10RS)-6-Ethoxy-10-(3-hydroyx-phenyl)-2-[3-(2-methoxy-ethylamino)-propyl]-3a-methyl-3a,4,9,10-tetrahydro-2,9,10a-triaza-cyclopenta[b]fluorene-1,3-dione] | 39.8 to 251
